Reference: paper PMC7451048 (Drug metabolism letters, 2019)

Key:
[1] = target: T1, BCRP (Homo sapiens, UniProt Q9UNQ0); experiment: Plasma membrane vesicle transport assay, BCRP vesicles; format: in vitro ADME; conditions: model substrate at 5 μM (Fig. S5)
T1 sequence (Q9UNQ0 1-655): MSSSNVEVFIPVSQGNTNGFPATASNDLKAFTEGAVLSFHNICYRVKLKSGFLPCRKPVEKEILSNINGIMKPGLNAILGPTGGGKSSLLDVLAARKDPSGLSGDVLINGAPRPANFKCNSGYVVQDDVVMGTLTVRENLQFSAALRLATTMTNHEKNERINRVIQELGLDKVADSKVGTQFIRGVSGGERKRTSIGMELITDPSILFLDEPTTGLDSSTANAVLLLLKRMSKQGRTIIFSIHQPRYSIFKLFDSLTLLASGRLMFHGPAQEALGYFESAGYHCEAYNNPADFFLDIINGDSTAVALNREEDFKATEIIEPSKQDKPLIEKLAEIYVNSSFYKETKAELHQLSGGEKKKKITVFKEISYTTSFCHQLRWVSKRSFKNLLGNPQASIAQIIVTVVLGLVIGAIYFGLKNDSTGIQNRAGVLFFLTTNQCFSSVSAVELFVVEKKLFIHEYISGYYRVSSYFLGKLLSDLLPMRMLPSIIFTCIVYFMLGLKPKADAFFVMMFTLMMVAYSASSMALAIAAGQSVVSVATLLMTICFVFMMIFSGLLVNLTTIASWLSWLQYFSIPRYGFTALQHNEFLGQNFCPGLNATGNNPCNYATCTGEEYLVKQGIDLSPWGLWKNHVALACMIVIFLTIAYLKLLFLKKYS

[2] = target: T2, OATP1B3 (Homo sapiens, UniProt Q9NPD5); conditions: model substrate at 5 μM (Fig. S2)
T2 sequence (Q9NPD5 1-702): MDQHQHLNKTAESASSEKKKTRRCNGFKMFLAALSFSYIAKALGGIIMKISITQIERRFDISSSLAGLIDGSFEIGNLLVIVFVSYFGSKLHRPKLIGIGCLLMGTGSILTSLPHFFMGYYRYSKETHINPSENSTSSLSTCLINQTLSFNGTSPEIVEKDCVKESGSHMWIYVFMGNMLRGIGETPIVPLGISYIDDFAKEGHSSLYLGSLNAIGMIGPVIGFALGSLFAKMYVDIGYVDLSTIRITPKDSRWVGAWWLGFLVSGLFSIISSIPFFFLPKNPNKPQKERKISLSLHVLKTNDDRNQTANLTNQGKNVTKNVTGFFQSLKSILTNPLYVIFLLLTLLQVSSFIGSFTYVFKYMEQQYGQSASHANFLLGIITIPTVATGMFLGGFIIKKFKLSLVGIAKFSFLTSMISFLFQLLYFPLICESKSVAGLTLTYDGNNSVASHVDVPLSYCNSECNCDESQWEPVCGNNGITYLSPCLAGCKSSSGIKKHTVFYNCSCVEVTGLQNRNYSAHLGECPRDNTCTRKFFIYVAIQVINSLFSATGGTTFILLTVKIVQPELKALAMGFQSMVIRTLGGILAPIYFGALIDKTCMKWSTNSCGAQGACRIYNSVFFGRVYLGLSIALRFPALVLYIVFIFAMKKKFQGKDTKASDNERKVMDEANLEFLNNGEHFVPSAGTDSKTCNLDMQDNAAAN

[3] = target: T3, OATP1B1 (Homo sapiens, UniProt Q9Y6L6); conditions: model substrate at 5 μM (Fig. S2)
T3 sequence (Q9Y6L6 1-691): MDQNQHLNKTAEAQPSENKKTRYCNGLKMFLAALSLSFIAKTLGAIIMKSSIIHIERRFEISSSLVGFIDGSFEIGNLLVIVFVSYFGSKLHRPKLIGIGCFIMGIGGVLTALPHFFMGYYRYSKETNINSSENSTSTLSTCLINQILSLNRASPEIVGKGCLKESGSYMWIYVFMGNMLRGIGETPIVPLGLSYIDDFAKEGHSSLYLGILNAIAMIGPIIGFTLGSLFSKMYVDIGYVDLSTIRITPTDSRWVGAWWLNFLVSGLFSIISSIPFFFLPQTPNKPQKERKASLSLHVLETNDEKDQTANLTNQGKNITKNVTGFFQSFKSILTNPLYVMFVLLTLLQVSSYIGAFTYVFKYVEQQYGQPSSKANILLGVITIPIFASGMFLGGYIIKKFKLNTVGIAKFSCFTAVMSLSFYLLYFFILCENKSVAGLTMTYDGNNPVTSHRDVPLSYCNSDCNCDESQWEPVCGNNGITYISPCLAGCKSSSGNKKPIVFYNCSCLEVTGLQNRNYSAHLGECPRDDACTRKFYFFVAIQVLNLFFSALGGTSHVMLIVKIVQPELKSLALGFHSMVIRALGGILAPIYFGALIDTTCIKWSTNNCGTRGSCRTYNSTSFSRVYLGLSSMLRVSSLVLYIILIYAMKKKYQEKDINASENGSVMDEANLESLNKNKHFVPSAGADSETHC

[4] = target: MRP2 (Homo sapiens, UniProt Q92887); experiment: Plasma membrane vesicle transport assay, MRP2 vesicles; conditions: model substrate at 5 μM (Fig. S5)
Sequence of MRP2 (Q92887 whole entry): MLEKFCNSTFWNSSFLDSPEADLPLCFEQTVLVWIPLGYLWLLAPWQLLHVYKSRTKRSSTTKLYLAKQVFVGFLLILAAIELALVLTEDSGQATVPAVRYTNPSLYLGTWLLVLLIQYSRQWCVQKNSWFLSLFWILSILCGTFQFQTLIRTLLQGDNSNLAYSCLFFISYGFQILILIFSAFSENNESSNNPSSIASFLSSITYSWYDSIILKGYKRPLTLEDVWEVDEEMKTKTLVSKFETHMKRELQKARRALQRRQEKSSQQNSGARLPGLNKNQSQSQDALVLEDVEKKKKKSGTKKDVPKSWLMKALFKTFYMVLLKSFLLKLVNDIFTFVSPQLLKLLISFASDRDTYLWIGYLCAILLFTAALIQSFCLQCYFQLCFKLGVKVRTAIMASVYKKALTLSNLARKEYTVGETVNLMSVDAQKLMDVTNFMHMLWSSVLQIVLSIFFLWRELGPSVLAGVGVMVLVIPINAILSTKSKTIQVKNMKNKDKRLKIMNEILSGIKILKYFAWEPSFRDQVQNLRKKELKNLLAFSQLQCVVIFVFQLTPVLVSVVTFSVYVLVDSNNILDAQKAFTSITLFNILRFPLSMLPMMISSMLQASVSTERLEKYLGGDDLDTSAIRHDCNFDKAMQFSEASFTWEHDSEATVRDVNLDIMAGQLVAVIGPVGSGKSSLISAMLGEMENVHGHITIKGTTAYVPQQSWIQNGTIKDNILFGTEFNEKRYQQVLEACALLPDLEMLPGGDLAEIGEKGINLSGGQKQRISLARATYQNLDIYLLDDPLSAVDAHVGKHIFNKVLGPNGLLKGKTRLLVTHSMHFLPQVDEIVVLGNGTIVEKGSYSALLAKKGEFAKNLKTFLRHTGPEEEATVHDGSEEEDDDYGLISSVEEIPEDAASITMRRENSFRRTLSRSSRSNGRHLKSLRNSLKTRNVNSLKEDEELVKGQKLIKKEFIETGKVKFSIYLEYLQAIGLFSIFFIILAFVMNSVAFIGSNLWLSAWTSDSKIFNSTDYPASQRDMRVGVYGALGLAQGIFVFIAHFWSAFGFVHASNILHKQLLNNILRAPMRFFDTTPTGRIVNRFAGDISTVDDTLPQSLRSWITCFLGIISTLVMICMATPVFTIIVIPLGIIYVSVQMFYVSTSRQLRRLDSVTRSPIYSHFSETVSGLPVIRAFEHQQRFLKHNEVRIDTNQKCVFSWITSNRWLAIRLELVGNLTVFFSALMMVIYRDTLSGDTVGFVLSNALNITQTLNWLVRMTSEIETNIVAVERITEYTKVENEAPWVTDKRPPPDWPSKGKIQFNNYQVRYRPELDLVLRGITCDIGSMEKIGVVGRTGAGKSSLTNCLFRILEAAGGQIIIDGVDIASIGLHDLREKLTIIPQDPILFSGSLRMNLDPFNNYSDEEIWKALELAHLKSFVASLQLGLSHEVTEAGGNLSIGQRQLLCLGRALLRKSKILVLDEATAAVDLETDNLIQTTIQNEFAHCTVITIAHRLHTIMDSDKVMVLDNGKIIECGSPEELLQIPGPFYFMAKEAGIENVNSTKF

[5] = target: T4, OATP4A1 (Homo sapiens, UniProt Q96BD0); experiment: Cellular uptake assay, HEK/OATP4A1 vs HEK empty vector cells; conditions: model substrate at 5 μM (Fig. S2)
T4 sequence (Q96BD0 1-722): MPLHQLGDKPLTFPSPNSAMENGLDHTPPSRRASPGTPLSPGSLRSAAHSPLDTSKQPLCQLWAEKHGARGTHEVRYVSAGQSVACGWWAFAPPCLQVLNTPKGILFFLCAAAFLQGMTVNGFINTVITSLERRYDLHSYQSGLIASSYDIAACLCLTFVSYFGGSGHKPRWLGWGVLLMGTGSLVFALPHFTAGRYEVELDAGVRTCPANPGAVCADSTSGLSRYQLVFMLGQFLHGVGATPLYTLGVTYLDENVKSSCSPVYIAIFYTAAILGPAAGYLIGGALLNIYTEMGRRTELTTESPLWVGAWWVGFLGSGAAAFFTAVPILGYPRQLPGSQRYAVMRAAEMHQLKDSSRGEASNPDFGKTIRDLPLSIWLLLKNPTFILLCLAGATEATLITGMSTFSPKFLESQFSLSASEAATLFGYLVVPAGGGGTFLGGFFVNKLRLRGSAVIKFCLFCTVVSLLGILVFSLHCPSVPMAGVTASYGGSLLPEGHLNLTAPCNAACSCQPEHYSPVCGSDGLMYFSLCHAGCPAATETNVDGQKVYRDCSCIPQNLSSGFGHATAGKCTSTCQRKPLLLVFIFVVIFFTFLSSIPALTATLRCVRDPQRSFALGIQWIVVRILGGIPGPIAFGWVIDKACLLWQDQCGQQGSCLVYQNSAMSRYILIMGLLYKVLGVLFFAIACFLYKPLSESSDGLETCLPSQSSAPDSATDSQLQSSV

[6] = target: T5, OATP2B1 (Homo sapiens, UniProt O94956); conditions: model substrate at 5 μM (Fig. S2)
T5 sequence (O94956 1-709): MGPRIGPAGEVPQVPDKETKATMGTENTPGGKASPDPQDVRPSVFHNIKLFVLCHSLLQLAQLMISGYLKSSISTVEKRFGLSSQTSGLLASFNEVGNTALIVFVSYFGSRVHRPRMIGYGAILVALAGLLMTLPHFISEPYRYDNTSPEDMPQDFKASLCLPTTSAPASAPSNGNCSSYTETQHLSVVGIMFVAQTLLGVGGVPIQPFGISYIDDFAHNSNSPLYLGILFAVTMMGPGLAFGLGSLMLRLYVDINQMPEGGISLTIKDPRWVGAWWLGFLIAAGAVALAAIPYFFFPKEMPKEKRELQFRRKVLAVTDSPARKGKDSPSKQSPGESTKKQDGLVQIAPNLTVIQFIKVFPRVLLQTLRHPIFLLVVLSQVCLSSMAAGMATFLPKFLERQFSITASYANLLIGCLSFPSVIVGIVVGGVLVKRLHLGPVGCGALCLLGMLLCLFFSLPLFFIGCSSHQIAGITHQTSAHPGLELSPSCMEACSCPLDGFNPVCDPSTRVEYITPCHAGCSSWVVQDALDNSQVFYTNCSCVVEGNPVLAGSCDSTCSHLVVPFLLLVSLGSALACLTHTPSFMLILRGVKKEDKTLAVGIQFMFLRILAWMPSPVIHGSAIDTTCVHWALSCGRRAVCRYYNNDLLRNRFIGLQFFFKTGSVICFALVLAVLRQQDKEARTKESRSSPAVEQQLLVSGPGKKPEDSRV

[7] = system: OATP1B1; conditions: cited from earlier work
[8] = system: OATP2B1; conditions: read-out: IC50 for OATP2B1; reported; ref [22], [41]–[43]; cited from earlier work
[9] = system: OATP1B3; conditions: read-out: IC50 for OATP1B3; reported; ref [22], [41]–[43]; cited from earlier work
[10] = system: OAT; conditions: read-out: IC50 (OAT inhibitor); reported; ref [44]–[47]; cited from earlier work
[11] = target: T6, OCT1 (Homo sapiens, UniProt O15245); experiment: Cellular uptake assay, HEK/OCT1 vs HEK empty vector cells; conditions: model substrate (Fig. S2)
T6 sequence (O15245 1-554): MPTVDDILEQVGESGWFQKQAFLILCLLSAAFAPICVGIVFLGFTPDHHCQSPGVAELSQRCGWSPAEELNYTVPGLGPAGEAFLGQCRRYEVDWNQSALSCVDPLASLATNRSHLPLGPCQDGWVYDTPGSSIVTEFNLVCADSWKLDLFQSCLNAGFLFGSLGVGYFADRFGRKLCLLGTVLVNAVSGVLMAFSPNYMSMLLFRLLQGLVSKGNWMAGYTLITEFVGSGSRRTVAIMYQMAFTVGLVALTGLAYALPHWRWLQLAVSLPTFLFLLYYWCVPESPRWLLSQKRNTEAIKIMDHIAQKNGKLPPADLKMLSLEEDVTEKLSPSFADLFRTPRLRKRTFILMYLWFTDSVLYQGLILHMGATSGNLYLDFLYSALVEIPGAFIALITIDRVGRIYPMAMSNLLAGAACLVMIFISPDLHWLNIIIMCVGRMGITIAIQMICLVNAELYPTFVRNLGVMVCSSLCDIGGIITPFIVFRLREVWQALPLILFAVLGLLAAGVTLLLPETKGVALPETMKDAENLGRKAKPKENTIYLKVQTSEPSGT

[12] = substrate: CC(NC(C)(C)C)C(=O)c1cccc(Cl)c1

C[C@]12CC[C@@H]3c4ccc(O)cc4CC[C@H]3[C@@H]1CC[C@@H]2O[C@@H]1O[C@H](C(=O)O)[C@@H](O)[C@H](O)[C@H]1O [E2-17β-G, estradiol-17β-glucuronide, reference compound]
Uptake into BCRP vesicles in the presence of ATP relative to AMP [1]: 10–100 times | Uptake into CHO/OATP1B3 cells relative to CHO wild-type parent cells [2]: ~2 times | Uptake into CHO/OATP1B1 cells relative to CHO wild-type parent cells [3]: approximately 6 times | Uptake into MRP2 vesicles in the presence of ATP relative to AMP [4]: 10–100 times

C[C@]12CC[C@@H]3c4ccc(OS(=O)(=O)O)cc4CC[C@H]3[C@@H]1CCC2=O [E1-3-S, Estrone-3-sulfate, reference compound]
Uptake into HEK/OATP4A1 cells relative to HEK vector control cells [5]: 20 times | Uptake into HEK/OATP2B1 cells relative to HEK vector control cells [6]: 42 times

CO[C@H]1/C=C/O[C@@]2(C)Oc3c(C)c(O)c4c(O)c(c(/C=N/N5CCN(C)CC5)c(O)c4c3C2=O)NC(=O)/C(C)=C\C=C\[C@H](C)[C@H](O)[C@@H](C)[C@@H](O)[C@@H](C)[C@H](OC(C)=O)[C@@H]1C [RIF, Rifampin]
IC50 ([7]; read-out: IC50 for OATP1B1, reported, ref [22], [41]–[43]): 1500 to 3250 nM | IC50 [8]: 2100 nM | IC50 [9]: 1500 to 2600 nM

CCCN(CCC)S(=O)(=O)c1ccc(C(=O)O)cc1 [probenecid]
IC50 [10]: 3100 to 7400 nM

C[n+]1ccc(-c2ccccc2)cc1 [[^3H]-MPP^+, reference compound]
Uptake into OCT1-overexpressing cells relative to vector control cells [11]: 15 times

COC(=O)[C@H](c1ccccc1Cl)N1CCc2sccc2C1 [Clopidogrel]
Inhibition of OATP1B1 ([7]; ref [26]): effective inhibitor

B1: OATP1B1 (Homo sapiens) (protein)
chain: T3 sequence (Q9Y6L6 1-691)
Km [12]: 31 ± 7 µM | Vmax [12]: 1407±91 pmol/mg protein/min
